Active and inactive are the calls of the source. No cut-off for these calls is given here.
How the values were obtained:
[1] = system: Leishmania tarentolae; assay: Noncompetitive inhibition of chymotrypsin-like activity of Leishmania tarentolae proteasome beta 5 using fluorogenic peptide Suc-LLVY-[Rh110]-[Dpro] as substrate
[2] = in vitro; settings: mouse, liver microsomes
Description: Metabolic stability in mouse liver microsomes assessed as hepatic extraction ratio after 1 hr by LC-MS/MS analysis

[3] = in vitro; settings: rat, liver microsomes
[4] = in vitro; settings: rat, liver microsomes; remark: listed apart in the source
[5] = system: Leishmania donovani; assay: Antiparasitic activity against Leishmania donovani MHOM/ET/67/HU3 (ATCC) infected in primary BALB/c mouse peritoneal macrophages assessed as reduction in parasite proliferation incubated for 120 hrs by SYBR Green I staining based assay; format: functional, organism-based; settings: Macrophage
[6] = Drug level in dog hepatocytes assessed as compound abundance level at 10 uM incubated for 4 hrs by UV chromatography; format: ADME, cell-based, Canis lupus familiaris, Hepatocyte
[7] = Drug level in monkey hepatocytes assessed as compound abundance level at 10 uM incubated for 4 hrs by UV chromatography; format: ADME, cell-based, Macaca mulatta, Hepatocyte; settings: rhesus monkey
[8] = Drug level in rat hepatocytes assessed as compound abundance level at 10 uM incubated for 4 hrs by UV chromatography; format: ADME, cell-based, Hepatocyte
[9] = Drug level in human hepatocytes assessed as compound abundance level at 10 uM incubated for 4 hrs by UV chromatography; format: ADME, cell-based, Hepatocyte
[10] = in vitro; settings: rat, liver microsomes; remark: listed apart in the source
Description: Metabolic stability in rat liver microsomes assessed as hepatic extraction ratio after 1 hr by LC-MS/MS analysis

[11] = system: Leishmania tarentolae; assay: Inhibition of chymotrypsin-like activity of Leishmania tarentolae proteasome beta 4 F24L mutant
[12] = system: Leishmania tarentolae; assay: Inhibition of chymotrypsin-like activity of Leishmania tarentolae proteasome beta 4
[13] = Drug uptake in beagle dog at 10 mg/kg, po measured up to 24 hrs relative to LXE408; format: ADME, organism-based, Canis lupus familiaris; settings: in vivo
[14] = Drug level in mouse hepatocytes assessed as compound abundance level at 10 uM incubated for 4 hrs by UV chromatography; format: ADME, cell-based, Hepatocyte
[15] = system: Leishmania donovani; assay: Antiparasitic activity against Leishmania donovani MHOM/ET/67/HU3 (ATCC) infected in BALB/c mouse model of visceral leishmaniasis assessed as parasite burden in liver at 12 mg/kg, po QD for 8 days by qPCR analysis (reference value: 100%); format: functional; settings: time 8 day
[16] = system: Leishmania donovani; assay: Antiparasitic activity against Leishmania donovani MHOM/ET/67/HU3 (ATCC) infected in BALB/c mouse model of visceral leishmaniasis assessed as reduction in parasite burden in liver at 12 mg/kg, po QD for 8 days by qPCR analysis relative to control; format: functional, organism-based; settings: time 8.0 day
[17] = molecular target: T1, Cytochrome P450 1A2 (Homo sapiens, UniProt P05177); assay: Drug metabolism assessed as human CYP1A2-mediated N-(4-fluoro-3-(6-(3-methylpyri din-2-yl)-[1,2,4]triazolo[1,5- a]pyrimidin-2-yl)phenyl)-2-(hy droxymethyl)-4-methyloxazole-5 -carboxamide formation; format: ADME; settings: recombinant enzyme
T1 sequence (P05177 whole entry): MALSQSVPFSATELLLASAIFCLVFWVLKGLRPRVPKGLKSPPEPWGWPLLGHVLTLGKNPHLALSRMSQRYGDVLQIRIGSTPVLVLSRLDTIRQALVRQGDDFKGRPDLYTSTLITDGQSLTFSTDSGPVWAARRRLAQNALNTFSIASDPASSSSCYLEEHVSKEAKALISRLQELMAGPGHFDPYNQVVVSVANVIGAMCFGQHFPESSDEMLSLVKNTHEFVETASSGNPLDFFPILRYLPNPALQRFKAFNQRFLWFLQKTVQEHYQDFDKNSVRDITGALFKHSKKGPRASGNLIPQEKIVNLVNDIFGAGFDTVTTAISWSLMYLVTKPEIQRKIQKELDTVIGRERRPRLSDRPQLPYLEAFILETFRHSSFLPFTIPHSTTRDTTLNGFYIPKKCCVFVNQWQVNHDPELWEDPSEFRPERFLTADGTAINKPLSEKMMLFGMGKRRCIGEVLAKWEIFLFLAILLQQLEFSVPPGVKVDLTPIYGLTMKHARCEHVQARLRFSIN

[18] = molecular target: T2, Cytochrome P450 1A1 (Homo sapiens, UniProt P04798); assay: Drug metabolism assessed as human CYP1A1-mediated N-(4-fluoro-3-(6-(3-methylpyri din-2-yl)-[1,2,4]triazolo[1,5- a]pyrimidin-2-yl)phenyl)-2-(hy droxymethyl)-4-methyloxazole-5 -carboxamide formation; format: ADME; settings: recombinant enzyme
T2 sequence (P04798 whole entry): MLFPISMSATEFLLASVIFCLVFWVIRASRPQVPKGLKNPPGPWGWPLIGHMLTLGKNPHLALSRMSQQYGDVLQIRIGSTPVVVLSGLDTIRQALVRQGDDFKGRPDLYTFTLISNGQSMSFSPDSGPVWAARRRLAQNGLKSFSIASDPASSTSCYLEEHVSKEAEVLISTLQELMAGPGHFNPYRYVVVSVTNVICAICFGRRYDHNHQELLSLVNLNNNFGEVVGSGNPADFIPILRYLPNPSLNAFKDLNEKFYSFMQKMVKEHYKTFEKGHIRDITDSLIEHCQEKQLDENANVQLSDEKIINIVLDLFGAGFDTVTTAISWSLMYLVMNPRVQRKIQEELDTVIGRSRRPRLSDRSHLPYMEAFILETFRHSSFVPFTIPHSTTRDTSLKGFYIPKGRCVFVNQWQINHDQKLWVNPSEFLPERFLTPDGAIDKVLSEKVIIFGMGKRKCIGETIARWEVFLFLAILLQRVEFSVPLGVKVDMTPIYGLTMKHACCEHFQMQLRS

[19] = Genotoxicity in Salmonella typhimurium by Ames test; format: toxicity; settings: salmonella enterica subsp. enterica serovar typhimurium
[20] = system: Leishmania major; assay: Antiparasitic activity against Leishmania major MHOM/IR/-/173 promastigotes infected in BALB/c mouse model of cutaneous leishmaniasis assessed as healing of parasite-induced skin lesions at 20 mg/kg, po BID for 10 days; format: functional, organism-based; settings: time 10.0 day
[21] = Toxicity in rat by vivo micronucleus test
[22] = Drug concentration in plasma of Leishmania donovani MHOM/ET/67/HU3 (ATCC) infected BALB/c mouse model of visceral leishmaniasis at 0.3 to 10 mg/kg, po BID for 8 days; format: ADME, organism-based; settings: in vivo, 192 h, dose 0.3-10 mg/kg, time 8 day
[23] = Inhibition of chymotrypsin-like activity of Leishmania tarentolae proteasome beta 5 Y113F mutant
[24] = molecular target: T3, Cytochrome P450 2D15 (Canis lupus familiaris, UniProt Q29473); assay: Drug metabolism assessed as dog CYP2D15-mediated N-(4-fluoro-3-(6-(3-methylpyri din-2-yl)-[1,2,4]triazolo[1,5- a]pyrimidin-2-yl)phenyl)-2-(hy droxymethyl)-4-methyloxazole-5 -carboxamide formation; format: ADME; settings: recombinant enzyme
T3 sequence (Q29473 whole entry): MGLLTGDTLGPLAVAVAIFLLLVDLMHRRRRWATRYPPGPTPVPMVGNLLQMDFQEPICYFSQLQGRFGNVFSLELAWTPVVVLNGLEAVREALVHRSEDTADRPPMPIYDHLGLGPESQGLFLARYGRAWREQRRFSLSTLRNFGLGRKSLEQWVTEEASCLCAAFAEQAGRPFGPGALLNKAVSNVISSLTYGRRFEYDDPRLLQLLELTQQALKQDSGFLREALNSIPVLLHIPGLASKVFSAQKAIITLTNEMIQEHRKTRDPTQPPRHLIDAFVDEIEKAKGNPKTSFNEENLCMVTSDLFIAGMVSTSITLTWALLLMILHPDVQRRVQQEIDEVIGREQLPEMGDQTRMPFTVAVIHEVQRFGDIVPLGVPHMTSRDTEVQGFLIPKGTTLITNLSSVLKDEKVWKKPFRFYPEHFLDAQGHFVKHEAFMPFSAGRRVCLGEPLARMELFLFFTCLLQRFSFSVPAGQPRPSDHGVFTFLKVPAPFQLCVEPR

[25] = molecular target: Cytochrome P450 3A4 (Homo sapiens, UniProt P08684); assay: Drug metabolism assessed as human CYP3A4-mediated N-(4-fluoro-3-(6-(3-methylpyri din-2-yl)-[1,2,4]triazolo[1,5- a]pyrimidin-2-yl)phenyl)-2-(hy droxymethyl)-4-methyloxazole-5 -carboxamide formation; format: ADME; settings: recombinant enzyme
Cytochrome P450 3A4, sequence (P08684 whole entry): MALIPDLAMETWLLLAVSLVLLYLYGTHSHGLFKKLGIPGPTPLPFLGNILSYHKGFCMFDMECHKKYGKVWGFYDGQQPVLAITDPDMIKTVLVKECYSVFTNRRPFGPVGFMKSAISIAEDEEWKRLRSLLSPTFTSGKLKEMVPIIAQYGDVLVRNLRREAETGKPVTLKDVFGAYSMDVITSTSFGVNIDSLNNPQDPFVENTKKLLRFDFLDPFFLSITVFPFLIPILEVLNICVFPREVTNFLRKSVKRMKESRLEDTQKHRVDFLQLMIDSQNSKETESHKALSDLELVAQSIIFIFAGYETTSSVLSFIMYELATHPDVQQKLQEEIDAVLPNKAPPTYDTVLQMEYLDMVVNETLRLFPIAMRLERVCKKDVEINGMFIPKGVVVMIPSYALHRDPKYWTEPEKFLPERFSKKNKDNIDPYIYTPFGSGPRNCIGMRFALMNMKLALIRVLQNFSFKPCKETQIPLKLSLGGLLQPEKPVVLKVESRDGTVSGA

[26] = system: Leishmania donovani; assay: Antiparasitic activity against Leishmania donovani MHOM/ET/67/HU3 (ATCC) infected in BALB/c mouse model of visceral leishmaniasis assessed as parasite burden in liver at 1 mg/kg, po BID for 8 days by qPCR analysis (reference value: 100%); format: functional; settings: time 8 day
[27] = system: Leishmania donovani; assay: Antiparasitic activity against Leishmania donovani MHOM/ET/67/HU3 (ATCC) infected in BALB/c mouse model of visceral leishmaniasis assessed as parasite burden in liver at 0.3 mg/kg, po BID for 8 days by qPCR analysis (reference value: 100%); format: functional; settings: time 8 day
[28] = system: Leishmania donovani; assay: Antiparasitic activity against Leishmania donovani MHOM/ET/67/HU3 (ATCC) infected in BALB/c mouse model of visceral leishmaniasis assessed as parasite burden in liver at 10 mg/kg, po BID for 8 days by qPCR analysis (reference value: 100%); format: functional; settings: time 8 day
[29] = molecular target: T4, Cytochrome P450 2J2 (Homo sapiens, UniProt P51589); assay: Drug metabolism assessed as human CYP2j2-mediated N-(4-fluoro-3-(6-(3-methylpyri din-2-yl)-[1,2,4]triazolo[1,5- a]pyrimidin-2-yl)phenyl)-2-(hy droxymethyl)-4-methyloxazole-5 -carboxamide formation; format: ADME; settings: recombinant enzyme
T4 sequence (P51589 whole entry): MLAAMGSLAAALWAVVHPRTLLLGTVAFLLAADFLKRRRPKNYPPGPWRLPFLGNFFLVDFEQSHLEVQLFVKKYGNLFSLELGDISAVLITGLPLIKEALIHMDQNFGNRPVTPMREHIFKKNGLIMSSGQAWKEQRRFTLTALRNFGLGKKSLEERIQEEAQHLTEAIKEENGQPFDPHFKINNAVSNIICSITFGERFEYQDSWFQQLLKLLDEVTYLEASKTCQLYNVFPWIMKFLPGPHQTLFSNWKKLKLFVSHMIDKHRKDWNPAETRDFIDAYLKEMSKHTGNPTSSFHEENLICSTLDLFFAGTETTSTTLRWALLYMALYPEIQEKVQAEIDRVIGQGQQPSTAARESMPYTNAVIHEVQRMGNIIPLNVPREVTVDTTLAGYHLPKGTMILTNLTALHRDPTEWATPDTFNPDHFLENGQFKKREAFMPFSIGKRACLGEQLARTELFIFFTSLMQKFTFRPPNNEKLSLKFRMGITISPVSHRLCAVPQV

[30] = system: Leishmania donovani; assay: Antiparasitic activity against Leishmania donovani MHOM/ET/67/HU3 (ATCC) infected in BALB/c mouse model of visceral leishmaniasis assessed as parasite burden in liver at 3 mg/kg, po BID for 8 days by qPCR analysis (reference value: 100%); format: functional; settings: time 8 day

SMILES: Cc1nc(C)c(C(=O)Nc2ccc(F)c(-c3nc4ncc(-c5ccccn5)cn4n3)c2)o1
- inhibition [1]: Active

SMILES: Cc1nc(C)c(C(=O)Nc2ccc(F)c(-c3nc4ncc(-c5ncccc5Cl)cn4n3)c2)o1
- hepatic extraction ratio at 1 h [2]: < 0.21
- hepatic extraction ratio at 1 h [3]: < 0.21
- hepatic extraction ratio at 1 h [4]: 0.21

SMILES: Cc1cccnc1-c1cnc2nc(-c3cc(NC(=O)c4oc(CO)nc4C)ccc3F)nn2c1
- EC50 [5]: > 5 µM
- Drug uptake [6]: 25%
- Drug uptake [7]: <= 25%
- Drug uptake [8]: <= 25%
- Drug uptake [9]: <= 25%

SMILES: Cc1nc(C)c(C(=O)Nc2ccc(F)c(-c3nc4ncc(-c5ncccc5C(F)F)cn4n3)c2)o1
- hepatic extraction ratio at 1 h [10]: < 0.18

SMILES: CC(C)C[C@H](NC(=O)[C@H](Cc1ccccc1)NC(=O)c1cnccn1)B(O)O
- inhibition [11]: Active
- inhibition [12]: Active

SMILES: Cc1nc(C)c(C(=O)Nc2ccc(F)c(-c3nc4ncc(-c5ncccc5CO)cn4n3)c2)o1
- Drug uptake [13]: 9.1%
- Drug uptake [6]: <= 25%
- Drug uptake [14]: <= 25%
- Drug uptake [7]: <= 25%
- Drug uptake [8]: <= 25%
- Drug uptake [9]: <= 25%

SMILES: Cc1nc(CO)c(C(=O)Nc2ccc(F)c(-c3nc4ncc(-c5ncccc5C)cn4n3)c2)o1
- Drug uptake [13]: 2.3%
- EC50 [5]: > 5 µM
- Drug uptake [6]: <= 25%
- Drug uptake [14]: <= 25%
- Drug uptake [7]: <= 25%
- Drug uptake [8]: <= 25%
- Drug uptake [9]: <= 25%

SMILES: CCCCCCCCCCCCCCCCOP(=O)([O-])OCC[N+](C)(C)C [MILTEFOSINE]
- Activity [15]: 4.2%
- Activity [16]: Active

SMILES: COc1cccnc1-c1cnc2nc(-c3cc(NC(=O)c4oc(C)nc4C)ccc3F)nn2c1
- hepatic extraction ratio at 1 h [4]: < 0.21

SMILES: Cc1nc(C)c(C(=O)Nc2ccc(F)c(-c3nc4ncc(-c5ncccc5C)cn4n3)c2)o1 [LXE-408]
- Drug uptake [6]: > 75%
- Drug metabolism [17]: Metabolite_Detected
- Drug metabolism [18]: Metabolite_Detected
- Activity [19]: Non-Toxic
- Activity [20]: Active
- Activity [21]: Non-Toxic
- Drug uptake [22]: Dose-dependent effect
- inhibition [23]: inactive
- Drug metabolism [24]: Metabolite_Detected
- Drug uptake [14]: > 75%
- Drug metabolism [25]: Metabolite_Detected
- Activity [26]: 5.1%
- Drug uptake [7]: > 75%
- Activity [27]: 85%
- Drug uptake [8]: > 75%
- Activity [28]: <0.16%
- Drug uptake [9]: > 75%
- Drug metabolism [29]: Metabolite_Detected
- Activity [30]: <0.2%

— ChEMBL document CHEMBL4665701, “Discovery and Characterization of Clinical Candidate LXE408 as a Kinetoplastid-Selective Proteasome Inhibitor for the Treatment of Leishmaniases” (J Med Chem, 2020)
